Results reported in ChEMBL document CHEMBL4476883, “Hydroxy formamide derivatives and their use” (2017).

Columns and labels:
[1] = target: T1, Tolloid-like protein 2 (Homo sapiens, UniProt Q9Y6L7); assay: Inhibition of C-terminal Avi-6x-His epitope tagged and N-terminal human RAGE signal sequence tagged recombinant human TLL2 (26 to 1015 amino acids) expressed in CHOE1A cells incubated for 60 mins with promyostatin peptide substrate by FRET based assay; assay type: cell-based
T1 sequence (Q9Y6L7 whole entry): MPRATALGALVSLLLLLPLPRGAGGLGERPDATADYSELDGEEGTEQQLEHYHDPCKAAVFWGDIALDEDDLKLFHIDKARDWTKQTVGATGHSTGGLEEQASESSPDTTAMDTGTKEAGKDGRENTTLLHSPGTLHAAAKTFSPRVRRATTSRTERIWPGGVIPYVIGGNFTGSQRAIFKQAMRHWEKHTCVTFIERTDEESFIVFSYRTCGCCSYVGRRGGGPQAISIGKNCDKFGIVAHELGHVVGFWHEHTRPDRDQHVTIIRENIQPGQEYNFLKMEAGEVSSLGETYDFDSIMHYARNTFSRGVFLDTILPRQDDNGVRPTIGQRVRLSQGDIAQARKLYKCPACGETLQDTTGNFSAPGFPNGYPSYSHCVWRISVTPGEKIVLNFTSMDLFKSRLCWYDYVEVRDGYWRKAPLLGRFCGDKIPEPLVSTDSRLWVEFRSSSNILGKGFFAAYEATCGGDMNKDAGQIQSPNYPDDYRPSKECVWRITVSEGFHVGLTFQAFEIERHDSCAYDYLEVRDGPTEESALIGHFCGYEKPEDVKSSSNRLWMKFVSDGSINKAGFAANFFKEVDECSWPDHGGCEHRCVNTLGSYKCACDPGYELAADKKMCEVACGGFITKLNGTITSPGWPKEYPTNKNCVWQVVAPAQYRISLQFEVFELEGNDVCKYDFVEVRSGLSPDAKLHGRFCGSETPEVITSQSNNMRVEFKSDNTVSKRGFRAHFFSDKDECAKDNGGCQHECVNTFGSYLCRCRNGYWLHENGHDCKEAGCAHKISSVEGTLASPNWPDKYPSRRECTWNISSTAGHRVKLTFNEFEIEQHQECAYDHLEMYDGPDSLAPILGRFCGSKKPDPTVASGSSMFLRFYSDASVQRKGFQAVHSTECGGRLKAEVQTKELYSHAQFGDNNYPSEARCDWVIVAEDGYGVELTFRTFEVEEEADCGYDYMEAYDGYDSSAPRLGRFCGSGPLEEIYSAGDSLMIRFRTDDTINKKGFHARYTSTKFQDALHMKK

[2] = target: T2, Bone morphogenetic protein 1 (Homo sapiens, UniProt P13497); assay: Inhibition of C-terminal FLAG-6x-His epitope tagged and N-terminal human RAGE signal sequence tagged human BMP1 (23 to 721 amino acids) expressed in CHO-E1A cells pre-incubated for 10 mins before promyostatin peptide substrate addition and measured after 30 mins using 50 nM BMP1 by FRET based assay; assay type: cell-based
T2 sequence (P13497 whole entry): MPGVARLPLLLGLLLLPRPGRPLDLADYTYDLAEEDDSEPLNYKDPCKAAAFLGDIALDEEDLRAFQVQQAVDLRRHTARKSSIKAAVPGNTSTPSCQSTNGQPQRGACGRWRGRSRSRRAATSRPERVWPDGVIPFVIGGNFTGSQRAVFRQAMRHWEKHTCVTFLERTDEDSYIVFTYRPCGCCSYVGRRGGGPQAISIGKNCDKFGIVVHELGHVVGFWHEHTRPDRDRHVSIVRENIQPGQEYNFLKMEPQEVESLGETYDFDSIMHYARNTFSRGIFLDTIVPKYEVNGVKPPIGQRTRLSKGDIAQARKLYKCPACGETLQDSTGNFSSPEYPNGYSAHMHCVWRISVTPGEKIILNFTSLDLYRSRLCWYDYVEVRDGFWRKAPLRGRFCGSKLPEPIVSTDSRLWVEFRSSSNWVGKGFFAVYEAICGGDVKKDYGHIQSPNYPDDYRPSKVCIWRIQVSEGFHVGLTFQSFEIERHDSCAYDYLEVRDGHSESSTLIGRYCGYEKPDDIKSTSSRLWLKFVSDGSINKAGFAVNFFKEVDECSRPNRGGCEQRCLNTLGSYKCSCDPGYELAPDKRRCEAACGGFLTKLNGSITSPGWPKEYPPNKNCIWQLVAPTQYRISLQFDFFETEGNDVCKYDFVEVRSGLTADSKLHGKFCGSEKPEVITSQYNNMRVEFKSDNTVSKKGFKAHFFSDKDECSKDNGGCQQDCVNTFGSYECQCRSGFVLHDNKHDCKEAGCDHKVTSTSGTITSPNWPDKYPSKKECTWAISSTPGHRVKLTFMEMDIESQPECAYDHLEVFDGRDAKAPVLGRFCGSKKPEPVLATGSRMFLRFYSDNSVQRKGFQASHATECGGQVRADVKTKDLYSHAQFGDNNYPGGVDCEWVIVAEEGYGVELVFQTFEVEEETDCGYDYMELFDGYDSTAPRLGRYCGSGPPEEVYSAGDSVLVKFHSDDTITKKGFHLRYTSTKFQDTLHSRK

[3] = Reduction in mature collagen deposition levels in human cardiac fibroblasts incubated for 24 to 48 hrs by immunostaining based assay; assay type: functional
[4] = target: Tolloid-like protein 1 (Homo sapiens, UniProt O43897, I156V/N221S/V284A); assay: Inhibition of recombinant human TLL1 I156V/N221S/V284A mutant expressed in CHOE1A cells pre-incubated for 10 mins before promyostatin peptide substrate addition and measured after 60 mins by FRET based assay; assay type: cell-based
Chain of Tolloid-like protein 1 (O43897 148-1013 I156V/N221S/V284A limits assumed): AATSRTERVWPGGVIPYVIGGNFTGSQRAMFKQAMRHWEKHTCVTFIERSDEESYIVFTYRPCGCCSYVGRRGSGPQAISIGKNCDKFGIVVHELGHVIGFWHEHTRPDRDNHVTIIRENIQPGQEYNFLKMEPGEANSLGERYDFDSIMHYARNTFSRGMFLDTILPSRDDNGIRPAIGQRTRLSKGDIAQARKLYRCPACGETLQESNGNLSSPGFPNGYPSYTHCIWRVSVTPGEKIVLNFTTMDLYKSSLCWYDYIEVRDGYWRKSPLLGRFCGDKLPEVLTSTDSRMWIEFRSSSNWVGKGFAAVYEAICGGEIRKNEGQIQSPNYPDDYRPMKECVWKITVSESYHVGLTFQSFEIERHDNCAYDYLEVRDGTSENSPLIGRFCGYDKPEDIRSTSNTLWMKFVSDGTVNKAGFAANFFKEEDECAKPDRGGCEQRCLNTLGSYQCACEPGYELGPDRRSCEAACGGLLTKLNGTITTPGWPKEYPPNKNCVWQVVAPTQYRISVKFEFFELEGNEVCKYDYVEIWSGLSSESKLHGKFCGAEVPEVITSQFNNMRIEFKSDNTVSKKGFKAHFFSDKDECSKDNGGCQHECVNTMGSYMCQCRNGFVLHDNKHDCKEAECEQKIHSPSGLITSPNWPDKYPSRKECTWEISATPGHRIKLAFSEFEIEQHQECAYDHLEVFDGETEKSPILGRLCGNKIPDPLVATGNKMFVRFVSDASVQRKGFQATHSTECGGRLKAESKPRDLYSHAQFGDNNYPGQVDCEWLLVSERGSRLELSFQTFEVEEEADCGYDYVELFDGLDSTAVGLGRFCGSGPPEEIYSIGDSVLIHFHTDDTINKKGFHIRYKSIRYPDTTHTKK

[5] = target: T2, Bone morphogenetic protein 1; assay: Inhibition of C-terminal FLAG-6x-His epitope tagged and N-terminal human RAGE signal sequence tagged human BMP1 (23 to 721 amino acids) expressed in CHO-E1A cells pre-incubated for 10 mins before promyostatin peptide substrate addition and measured after 60 mins using 0.5 nM BMP1 by FRET based assay; assay type: cell-based
[6] = Reduction in PICP levels in human cardiac fibroblasts incubated for 24 to 48 hrs by ELISA; assay type: functional

SMILES	IC50 [1] [nM]	IC50 [2] [nM]	IC50 [4] [nM]	IC50 [5] [nM]	IC50 [3] [nM]	IC50 [6] [µM]
CCCCC[C@@H](C(=O)NCNC(=O)c1cccc(-c2ccc(C(=O)NCP(=O)(O)O)c(C)c2)n1)[C@@H](CC)N(O)C=O	< 631	< 251	< 398	< 126		< 20
CCCCC[C@@H](C(=O)NCNC(=O)c1cccc(-c2ccc(C(=O)N[C@@H](CCC(=O)O)C(=O)O)cc2)n1)[C@@H](CC)N(O)C=O	< 631	< 251	< 398	< 126		< 20
CCOc1cc(-c2cccc(C(=O)NCNC(=O)[C@H](CCc3ccccc3)[C@@H](CC)N(O)C=O)n2)ccc1C(=O)O		< 251		< 126	< 1580	< 20
CCCCC[C@@H](C(=O)NCNC(=O)c1cccc(-c2ccc(C(=O)N(CC(=O)O)CC(=O)O)c(OCC)c2)n1)[C@@H](CC)N(O)C=O	< 631	< 251	< 398	< 126		< 20
CCCCC[C@@H](C(=O)NCNC(=O)c1cc(C(=O)O)cc(-c2ccccc2)c1)[C@@H](CC)N(O)C=O	< 631	< 251	< 398	< 126		< 20
CCCCC[C@@H](C(=O)NCNC(=O)c1cccc(-c2ccc(C(=O)N[C@@H](CC(=O)O)C(=O)O)c(F)c2)n1)[C@@H](CC)N(O)C=O	< 631	< 251	< 398	< 126		< 20
CCCCC[C@@H](C(=O)NCNC(=O)c1cccc(-c2cc(OCC)cc(P(=O)(O)O)c2)n1)[C@@H](CC)N(O)C=O	< 631	< 251	< 398	< 126		< 20
CCCCC[C@@H](C(=O)NCNC(=O)c1cccc(-c2ccc(C(=O)NCP(=O)(O)O)cc2)n1)[C@@H](CC)N(O)C=O	< 631	< 251	< 398	< 126		< 20
CCCCC[C@@H](C(=O)NCNC(=O)c1cccc(-c2ccc(C(=O)NCP(=O)(O)O)c(O)c2)n1)[C@@H](CC)N(O)C=O	< 631	< 251	< 398	< 126		< 20
CCCCC[C@@H](C(=O)NCNC(=O)c1cccc(-c2ccc(C(=O)N[C@@H](CC(=O)O)C(=O)O)c(Cl)c2)n1)[C@@H](CC)N(O)C=O	< 631	< 251	< 398	< 126		< 20
CCCCC[C@@H](C(=O)NCNC(=O)c1cccc(-c2ccc(C(=O)N[C@H](CC(=O)O)C(=O)O)cc2)n1)[C@@H](CC)N(O)C=O	< 631	< 251	< 398	< 126		< 20
CCCCC[C@@H](C(=O)NCNC(=O)c1cccc(-c2cc(OCC)cc(S(=O)(=O)O)c2)c1)[C@@H](CC)N(O)C=O	< 631	< 251	< 398	< 126		< 20
CCCCC[C@@H](C(=O)NCNC(=O)c1cccc(-c2ccc(C(=O)N[C@@H](CC(=O)O)C(=O)O)c(OCC(=O)O)c2)c1)[C@@H](CC)N(O)C=O	< 631	< 251	< 398	< 126		< 20
CCCCC[C@@H](C(=O)NCNC(=O)c1cccc(-c2cc(OCC)cc(C(=O)NCCN)c2)n1)[C@@H](CC)N(O)C=O		< 251		< 126	< 1580	< 20

Further lines, with some results ahead:

IC50 [1] [nM]	IC50 [2] [nM]	IC50 [4] [nM]	IC50 [5] [nM]	SMILES	IC50 [3] [nM]	IC50 [6] [µM]
< 631	< 251	< 398	< 126	CCCCC[C@@H](C(=O)NCNC(=O)c1cccc(-c2ccc(CC(=O)O)c(OCC)c2)c1)[C@@H](CC)N(O)C=O	< 1580	< 20
< 631	< 251	< 398	< 126	CCCCC[C@@H](C(=O)NCNC(=O)c1cccc(-c2ccc(P(=O)(O)O)c(OCC)c2)c1)[C@@H](CC)N(O)C=O		< 20
< 631	< 251	< 398	< 126	CCCCC[C@@H](C(=O)NCNC(=O)c1cccc(-c2cc(OCC)cc(C(=O)N(CC(=O)O)CC(=O)O)c2)n1)[C@@H](CC)N(O)C=O		< 20
< 631	< 251	< 398	< 126	CCCCC[C@@H](C(=O)NCNC(=O)c1cccc(-c2ccc(C(=O)O)c(C(=O)O)c2)n1)[C@@H](CC)N(O)C=O		< 20
< 631	< 251	< 398	< 126	CCCCC[C@@H](C(=O)NCNC(=O)c1cccc(-c2ccc(C(=O)NCP(=O)(O)O)c(OCC)c2)n1)[C@@H](CC)N(O)C=O		< 20
< 631	< 251	< 398	< 126	CCCCC[C@@H](C(=O)NCNC(=O)c1cccc(-c2cc(O)cc(P(=O)(O)O)c2)n1)[C@@H](CC)N(O)C=O		< 20
< 631	< 251	< 398	< 126	CCCCC[C@@H](C(=O)NCNC(=O)c1cccc(-c2ccc(C(=O)N[C@@H](CC(=O)O)C(=O)O)c(C)c2)n1)[C@@H](CC)N(O)C=O		< 20
< 631	< 251	< 398	< 126	CCCCC[C@@H](C(=O)NCNC(=O)c1cccc(-c2ccc(C(=O)N[C@@H](CCC(=O)O)C(=O)O)c(OCC)c2)n1)[C@@H](CC)N(O)C=O		< 20
< 631	< 251	< 398	< 126	CCCCC[C@@H](C(=O)NCNC(=O)c1cccc(-c2cc(OCC)cc(P(=O)(O)O)c2)c1)[C@@H](CC)N(O)C=O		< 20
< 631	< 251	< 398	< 126	CCCCC[C@@H](C(=O)NCNC(=O)c1cccc(-c2cc(OCC(=O)O)cc(C(=O)O)c2)n1)[C@@H](CC)N(O)C=O		< 20
< 631	< 251	< 398	< 126	CCCCC[C@@H](C(=O)NCNC(=O)c1cccc(-c2ccc(C(=O)N[C@@H](CC(=O)O)C(=O)O)cc2)n1)[C@@H](CC)N(O)C=O		< 20
